This passage reports IC50, % transactivation relative to ATRA and Emax results from patent US6083973A, “Methods for inhibiting mucin secretion using RAR α selective antagonists” (Syntex (U.S.A.) Inc., priority 1999, dated 2000).

The target of assay [1] is T1, RARγ (Homo sapiens, UniProt P13631).
T1 sequence (P13631 1-454): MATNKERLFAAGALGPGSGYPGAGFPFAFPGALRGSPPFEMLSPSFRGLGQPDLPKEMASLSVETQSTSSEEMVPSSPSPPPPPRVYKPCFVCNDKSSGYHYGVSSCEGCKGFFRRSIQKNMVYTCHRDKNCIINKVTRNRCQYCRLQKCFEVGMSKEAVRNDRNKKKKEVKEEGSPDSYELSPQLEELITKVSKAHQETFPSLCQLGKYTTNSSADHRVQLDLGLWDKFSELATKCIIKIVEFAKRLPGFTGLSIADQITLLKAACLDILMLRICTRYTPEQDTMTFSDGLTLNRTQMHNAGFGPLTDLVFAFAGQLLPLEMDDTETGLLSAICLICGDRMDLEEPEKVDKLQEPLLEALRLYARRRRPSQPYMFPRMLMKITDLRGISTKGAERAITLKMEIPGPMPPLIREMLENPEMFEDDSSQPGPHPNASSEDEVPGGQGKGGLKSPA
The assay is described as follows: RAR binding, competition with labelled ATRA, γ. As to the method: (§1) The term "IC50 " of a retinoid for a retinoic acid receptor refers to the concentration of the retinoid at which binding by ATRA to that particular receptor is inhibited by 50%. Binding is measured by competition of the retinoid with labelled ATRA.
(§2) The RARα antagonist selectivity of a compound can be determined by routine ligand binding assays known to one of skill in the art such as described in C. Apfel, et al. Proc. Nat. Sci. Acad. (USA), 89:7129-7133 (1992); M. Teng, et al, J. Med. Chem., 40:2445-2451 (1997); and PCT Publication WO 96/30009.

Assay [2] deals with T2, RARβ (Homo sapiens, UniProt P10826).
T2 sequence (P10826 1-455): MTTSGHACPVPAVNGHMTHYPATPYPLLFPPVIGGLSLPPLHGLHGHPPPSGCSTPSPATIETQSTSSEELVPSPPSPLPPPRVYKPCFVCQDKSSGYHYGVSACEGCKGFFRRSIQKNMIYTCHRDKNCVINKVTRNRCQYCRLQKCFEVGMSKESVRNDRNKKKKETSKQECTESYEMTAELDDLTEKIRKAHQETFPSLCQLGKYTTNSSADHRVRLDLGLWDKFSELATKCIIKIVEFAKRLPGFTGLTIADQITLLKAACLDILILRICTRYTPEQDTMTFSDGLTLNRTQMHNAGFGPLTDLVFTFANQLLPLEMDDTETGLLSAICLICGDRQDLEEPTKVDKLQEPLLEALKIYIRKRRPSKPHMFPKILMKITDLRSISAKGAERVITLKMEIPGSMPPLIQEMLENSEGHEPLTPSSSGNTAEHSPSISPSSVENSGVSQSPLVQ
The assay is described as follows: Transactivation of RARβ relative to ATRA. As to conditions: both compounds at 10000 nM, read-out: Transactivation EC50 % MAX, RARβ. The class given is biochemical. How it is done: (§3) As used herein, the term "EC50 " of a retinoid for a retinoic acid receptor means the transactivation by the retinoid of the particular retinoic acid receptor under consideration relative to the transactivation of that same receptor by ATRA under identical conditions with both retinoids at the same concentration (1000 nM or 10000 nM depending on the highest concentration tested). Values are expressed as a percentage.
(§4) As used herein, the term "transactivation" refers to the ability of a retinoid to activate the transcription of a gene where the gene transcription is initiated by the binding of a ligand to the particular retinoic acid receptor being tested, i.e., RARα, RARβ, or RARγ. Determining the ability of a compound to transactivate a retinoic acid receptor may be performed by methods known to those of skill in the art. Examples of such methods are found in Bernard, et al. Biochem. Biophys. Res. Commun., 186:977-983 (1992) and C. Apfel, et al. Proc. Nat. Sci. Acad. (USA), 89:7129-7133 (1992).
(§5) EC50 's were determined relative to ATRA, with both compounds at 10000 nM. Values are expressed as a percentage of transactivation relative to ATRA.

Assay [3] addresses T1, RARγ. The assay is described as follows: Transactivation of RARγ relative to ATRA. The settings on record: both compounds at 10000 nM, read-out: Transactivation EC50 % MAX, RARγ. The class given is biochemical. How it is done:
as §3, §4, §5

Assay [4] deals with T3, RARα (Homo sapiens, UniProt P10276).
T3 sequence (P10276 1-462): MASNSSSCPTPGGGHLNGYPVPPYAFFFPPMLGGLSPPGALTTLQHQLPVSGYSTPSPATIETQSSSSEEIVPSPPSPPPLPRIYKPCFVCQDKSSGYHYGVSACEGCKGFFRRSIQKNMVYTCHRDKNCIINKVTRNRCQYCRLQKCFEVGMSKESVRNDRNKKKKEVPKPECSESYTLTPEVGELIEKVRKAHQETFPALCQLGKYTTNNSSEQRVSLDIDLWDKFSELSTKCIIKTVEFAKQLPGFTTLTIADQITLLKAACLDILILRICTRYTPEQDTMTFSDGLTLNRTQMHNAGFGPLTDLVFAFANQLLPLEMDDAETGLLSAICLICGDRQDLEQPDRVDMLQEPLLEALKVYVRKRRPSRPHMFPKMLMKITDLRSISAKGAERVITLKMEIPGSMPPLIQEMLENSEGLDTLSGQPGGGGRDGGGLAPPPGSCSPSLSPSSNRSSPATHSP
The assay is described as follows: RAR binding, competition with labelled ATRA, α. How it is done: as §1, §2

The target in assay [5] is T3, RARα. The assay is described as follows: Transactivation of RARα relative to ATRA. The format is biochemical. The settings on record: both compounds at 10000 nM, read-out: Transactivation EC50 % MAX, RARα. How it is done:
as §3, §4, §5

For assay [6], the target named is T2, RARβ. The assay is described as follows: RAR binding, competition with labelled ATRA, β. As to the method:
as §1, §2

As for `CCCCCCCCc1cc2c(cc1/C(C)=C/C=C/C(C)=C/C(=O)O)C(C)(C)CCCS2(=O)=O`, the IC50 in assay [1] amounted to 1000 nM; in assay [4] it was 47 nM; in assay [6], 4900 nM. Moreover, the % transactivation relative to ATRA at 10 µM in assay [2] stood at 35%. In addition, the figures for the Emax at 10 µM in assay [3] and in assay [5] were 33% and 11%, respectively.

With `CCCCCCCCc1cc2c(cc1/C(C)=C/c1ccc(C(=O)O)cc1)C(C)(C)CCS2(=O)=O`, the IC50 in assay [1] was 2300 nM; in assay [4], 70 nM; in assay [6], 1900 nM. In assay [2], the % transactivation relative to ATRA at 10 µM amounted to 15%. In addition, the figures for the Emax at 10 µM in assay [3] and in assay [5] were 32% and 16%, respectively.

As to `CCCCCCCOc1cc2c(cc1/C(C)=C/C=C/C(C)=C/C(=O)O)C(C)(C)CCS2`, the IC50 is less than 10000 nM in assay [1], 200 nM in assay [4] and less than 10000 nM in assay [6]. Besides, the % transactivation relative to ATRA at 10 µM in assay [2] is 17%. Further, the Emax at 10 µM in assay [3] was 36%; in assay [5] it was 27%.

Regarding `CCCCCCCOc1cc2c(cc1/C(C)=C/C=C/C(C)=C/C(=O)O)C(C)(C)CCCS2(=O)=O`, the IC50 amounted to 2200 nM in assay [1], 180 nM in assay [4] and 6400 nM in assay [6]. Besides, the % transactivation relative to ATRA at 10 µM in assay [2] was determined as 20%. For the same molecule, the Emax at 10 µM in assay [3] turned out to be 30%; in assay [5], 12%.

Regarding `CCCCCCCOc1cc2c(cc1/C(C)=C/c1ccc(C(=O)O)cc1)C(C)(C)CCCS2(=O)=O`, the IC50 in assay [1] is 2500 nM; in assay [4] it was 190 nM; in assay [6], 3000 nM. Moreover, in assay [2], the % transactivation relative to ATRA at 10 µM was found to be 7%. The Emax at 10 µM is 18% in assay [3] and 14% in assay [5].

As for `CCCCCCCOc1cc2c(cc1-c1ccc3cc(C(=O)O)ccc3c1)C(C)(C)CCS2(=O)=O`, the IC50 in assay [1] was 1400 nM; in assay [4], 360 nM; in assay [6], 2800 nM. In addition, the % transactivation relative to ATRA at 10 µM in assay [2] came to 17%. For the same molecule, the Emax at 10 µM in assay [3] was determined as 14%; in assay [5] it was 8%.

In the case of `CCCCCCCOc1cc2c(cc1/C(C)=C/c1ccc(C(=O)O)cc1)C(C)CCCS2(=O)=O` (stereo not shown), the half-maximal inhibitory concentration (IC50) came to 3000 nM in assay [1], 530 nM in assay [4] and 5100 nM in assay [6]. Further, in assay [2], the % transactivation relative to ATRA at 10 µM came out at 7%. Further, the Emax at 10 µM in assay [5] amounted to 5%.

For the molecule `CCCCCCCOc1cc2c(cc1C#Cc1ccc(C(=O)O)cc1)C(C)(C)CCS2(=O)=O`, the IC50 in assay [1] was determined as 2900 nM; in assay [4] it was 240 nM; in assay [6] it was 3500 nM. Also, the % transactivation relative to ATRA at 10 µM in assay [2] stood at 6%. For the same molecule, the Emax at 10 µM was determined as 20% in assay [3] and 18% in assay [5].

With `CCCCCCCOc1cc2c(cc1/C(C)=C/C=C/C(C)=C/C(=O)O)C(C)(C)CC[S+]2[O-]` (stereo not shown), the IC50 is 3700 nM in assay [1], 440 nM in assay [4] and more than 10000 nM in assay [6]. In addition, the % transactivation relative to ATRA at 10 µM in assay [2] was 10%. The figures for the Emax at 10 µM in assay [3] and in assay [5] were 11% and 13%, respectively.

`CCCCCCCCc1cc2c(cc1/C(C)=C/c1ccc(C(=O)O)cc1)C(C)(C)CCCS2(=O)=O`: the IC50 stood at 1800 nM in assay [1], 200 nM in assay [4] and 3300 nM in assay [6]. Also, in assay [2], the % transactivation relative to ATRA at 10 µM came out at 13%. Besides, the Emax at 10 µM came out at 36% in assay [3] and 18% in assay [5].

With `CCCCCCCOc1cc2c(cc1\C(C)=C/C=C/C(C)=C/C(=O)O)C(C)(C)CCS2(=O)=O`, the IC50 in assay [1] is more than 10000 nM; in assay [4], 450 nM; in assay [6], more than 10000 nM. Besides, in assay [2], the % transactivation relative to ATRA at 10 µM amounted to 31%. Besides, the Emax at 10 µM in assay [3] was found to be 20%; in assay [5], 24%.

Take `CCCCCCOc1cc2c(cc1/C(C)=C/C=C/C(C)=C/C(=O)O)C(C)(C)CCCS2(=O)=O`: the IC50 in assay [1] is 1300 nM; in assay [4], 250 nM; in assay [6], 2500 nM. The % transactivation relative to ATRA at 10 µM in assay [2] stood at 32%. The values for the Emax at 10 µM in assay [3] and in assay [5] were 46% and 20%, respectively.

Regarding `CCCCCCCCOc1cc2c(cc1/C(C)=C/c1ccc(C(=O)O)cc1)C(C)(C)CCCS2(=O)=O`, the IC50 was 2600 nM in assay [1], 390 nM in assay [4] and 6900 nM in assay [6]. In addition, the % transactivation relative to ATRA at 10 µM in assay [2] is 21%. For the same molecule, the Emax at 10 µM is 25% in assay [3] and 8% in assay [5].

On to `CCCCCCOc1cc2c(cc1/C(C)=C/c1ccc(C(=O)O)cc1)C(C)(C)CCCS2(=O)=O`, for which the values for the IC50 in assay [1], in assay [4] and in assay [6] were 2600 nM, 580 nM and 3800 nM, respectively. In assay [2], the % transactivation relative to ATRA at 10 µM was 37%. Moreover, the Emax at 10 µM in assay [3] was 54%; in assay [5] it was 14%.

`CCCCCCCOc1cc2c(cc1/C(C)=C/c1ccc(C(=O)O)cc1)C(C)(C)CS2(=O)=O`: the IC50 in assay [1] stood at 3400 nM; in assay [4], 160 nM; in assay [6], 6900 nM. In addition, the % transactivation relative to ATRA at 10 µM in assay [2] turned out to be 22%. Besides, the Emax at 10 µM in assay [3] is 24%; in assay [5], 11%.

`CCCCCCCOc1cc2c(cc1/C(C)=C/c1ccc(C(=O)O)cc1)C(C)(C)CCS2(=O)=O` [drawing 3]: the IC50 in assay [1] is 4200 nM; in assay [4] it was 77 nM. Also, the % transactivation relative to ATRA at 10 µM in assay [2] amounted to 3%. The Emax at 10 µM in assay [3] is 9%; in assay [5], 16%.

Turning to `CCCCCCCOc1cc2c(cc1/C(C)=C/C=C/C(C)=C/C(=O)O)C(C)(C)CCS2(=O)=O` [drawing 4], the IC50 is 2400 nM in assay [1], 27 nM in assay [4] and 5100 nM in assay [6]. Moreover, in assay [2], the % transactivation relative to ATRA at 10 µM was 14%. In addition, the results for the Emax at 10 µM in assay [3] and in assay [5] were 16% and 9%, respectively.

A word on the IC50: it is the concentration that inhibits the measured activity by half. High values mean weaker potency in that assay, low ones greater potency in that assay.
